Reference: ChEMBL document CHEMBL6134814, “Asiatic acid and its derivatives: Pharmacological insights and applications” (Eur J Med Chem, 2025)

Legend:
HT-29 [1] = experiment: Antiproliferative activity against human HT-29 cells assessed as reduction in cell viability incubated for 72 hrs by MTT assay; format: functional, cell-based; conditions: HT-29, 72 h
HCT-116 [2] = experiment: Cytotoxicity against human HCT-116 cells assessed as reduction in cell viability incubated fro 48 hrs by MTT assay; format: functional, cell-based; conditions: HCT-116, 48 h
SK-OV-3 [3] = experiment: Cytotoxicity against human SK-OV-3 cells assessed as reduction in cell viability incubated fro 48 hrs by MTT assay; format: functional, cell-based; conditions: SK-OV-3, 48 h
[4] = Cytotoxicity against human SPCA1 cells assessed as reduction in cell viability incubated fro 48 hrs by MTT assay; format: functional, cell-based; conditions: SPCA1, 48 h
B16-F10 = experiment: Anticancer activity against mouse B16-F10 cells assessed as reduction in cell growth incubated for 72 hrs by CCK-8 assay; format: functional, cell-based; conditions: B16-F10, 72 h
PC-3 = experiment: Antiproliferative activity against human PC-3 cells assessed as reduction in cell growth incubated for 72 hrs by MTT assay; format: functional, cell-based; conditions: PC-3, 72 h
Jurkat = experiment: Antiproliferative activity against human Jurkat cells assessed as reduction in cell growth incubated for 72 hrs by XTT assay; format: functional, cell-based
A-375 [5] = experiment: Antiproliferative activity against human A-375 cells assessed as reduction in cell growth incubated for 72 hrs by MTT assay; format: functional, cell-based; conditions: A-375, 72 h
MIA PaCa-2 = experiment: Antiproliferative activity against human MIA PaCa-2 cells assessed as reduction in cell growth incubated for 72 hrs by MTT assay; format: functional, cell-based; conditions: MIA PaCa-2, 72 h
Hepatocyte [6] = experiment: Hepatoprotective activity against CCl4-induced liver injury in male Wistar rat hepatocytes assessed as at 50 uM relative to control; format: functional
A549 = experiment: Antiproliferative activity against human A549 cells assessed as reduction in cell viability incubated for 72 hrs by CCK-8 assay; format: functional, cell-based; conditions: A549, 72 h
[7] = Antiproliferative activity against human PC9 Gefitinib-resistant (GR) cell assessed as reduction in cell viability incubated for 72 hrs by CCK-8 assay; format: functional, cell-based
HepG2 [8] = experiment: Antiproliferative activity against human HepG2 cells assessed as reduction in cell viability incubated for 48 hrs by MTT assay; format: functional, cell-based; conditions: HepG2, 48 h
SGC-7901 [9] = experiment: Antiproliferative activity against human SGC-7901 cells assessed as reduction in cell viability incubated for 48 hrs by MTT assay; format: functional, cell-based; conditions: SGC-7901, 48 h
Carbonic anhydrase 1 = Carbonic anhydrase 1 (Homo sapiens, UniProt P00915); experiment: Binding affinity to human carbonic anhydrase I assessed as inhibition constant
Carbonic anhydrase 1, sequence (P00915 whole entry): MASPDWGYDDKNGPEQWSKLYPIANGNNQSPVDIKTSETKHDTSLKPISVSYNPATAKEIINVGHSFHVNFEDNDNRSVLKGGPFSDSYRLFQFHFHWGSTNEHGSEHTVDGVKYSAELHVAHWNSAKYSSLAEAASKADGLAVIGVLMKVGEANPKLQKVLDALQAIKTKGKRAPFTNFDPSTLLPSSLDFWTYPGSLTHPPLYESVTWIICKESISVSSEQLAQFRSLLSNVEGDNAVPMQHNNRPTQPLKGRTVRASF

[10] = target: Carbonic anhydrase 5A, mitochondrial (Homo sapiens, UniProt P35218); experiment: Binding affinity to human carbonic anhydrase 5A assessed as inhibition constant
Carbonic anhydrase 5A, mitochondrial, sequence (P35218 whole entry): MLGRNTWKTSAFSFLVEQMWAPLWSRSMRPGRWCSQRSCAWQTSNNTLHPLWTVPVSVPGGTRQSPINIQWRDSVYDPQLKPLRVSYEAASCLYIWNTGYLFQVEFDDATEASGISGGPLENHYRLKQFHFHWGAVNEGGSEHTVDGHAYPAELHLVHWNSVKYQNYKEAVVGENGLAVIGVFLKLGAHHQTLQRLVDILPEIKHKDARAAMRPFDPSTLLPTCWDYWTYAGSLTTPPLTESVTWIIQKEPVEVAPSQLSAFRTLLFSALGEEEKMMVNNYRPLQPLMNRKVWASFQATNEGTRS

Carbonic anhydrase 9 = Carbonic anhydrase 9 (Homo sapiens, UniProt Q16790); experiment: Binding affinity to human carbonic anhydrase 9 assessed as inhibition constant
Carbonic anhydrase 2 = Carbonic anhydrase 2 (Homo sapiens, UniProt P00918); experiment: Binding affinity to human carbonic anhydrase 2 assessed as inhibition constant
Hepatocyte [11] = experiment: Hepatoprotective activity against glucosamine-induced liver injury in rat hepatocytes assessed as at 50 uM relative to control; format: functional
K562 = experiment: Cytotoxicity against human K562 cells assessed as reduction in cell viability incubated for 24 hrs by MTT assay; format: functional, cell-based; conditions: K562, 24 h
HeLa = experiment: Antiproliferative activity against human HeLa cells; format: functional, cell-based
HepG2 [12] = experiment: Antiproliferative activity against human HepG2 cells; format: functional, cell-based
BGC-823 = experiment: Antiproliferative activity against human BGC-823 cells; format: functional, cell-based
[13] = Inhibition of alpha-glucosidase (unknown origin); parameters: species or system Homo sapiens
HepG2 [14] = experiment: Antiproliferative activity against human HepG2 cells assessed as reduction in cell viability incubated for 72 hrs by MTT assay; format: functional, cell-based; conditions: HepG2, 72 h
SGC-7901 [15] = experiment: Antiproliferative activity against human SGC-7901 cells assessed as reduction in cell viability incubated for 72 hrs by MTT assay; format: functional, cell-based; conditions: SGC-7901, 72 h
A-375 [16] = experiment: Cytotoxicity against human A-375 cells assessed as reduction in cell growth incubated for 72 hrs by SRB assay; format: functional, cell-based; conditions: A-375, 72 h
HT-29 [17] = experiment: Cytotoxicity against human HT-29 cells assessed as reduction in cell growth incubated for 72 hrs by SRB assay; format: functional, cell-based; conditions: HT-29, 72 h
A2780 [18] = experiment: Cytotoxicity against human A2780 cells assessed as reduction in cell growth incubated for 72 hrs by SRB assay; format: functional, cell-based; conditions: A2780, 72 h
MCF7 [19] = experiment: Cytotoxicity against human MCF7 cells assessed as reduction in cell growth incubated for 72 hrs by SRB assay; format: functional, cell-based; conditions: MCF7, 72 h
HCT-116 [20] = experiment: Cytotoxicity against human HCT-116 cells assessed as reduction in cell growth incubated for 72 hrs by MTT assay; format: functional, cell-based; conditions: HCT-116, 72 h
MCF7 [21] = experiment: Cytotoxicity against human MCF7 cells assessed as reduction in cell growth incubated for 72 hrs by MTT assay; format: functional, cell-based; conditions: MCF7, 72 h
HepG2 [22] = experiment: Cytotoxicity against human HepG2 cells assessed as reduction in cell growth incubated for 72 hrs by MTT assay; format: functional, cell-based; conditions: HepG2, 72 h
HL-60 = experiment: Cytotoxicity against human HL-60 cells assessed as reduction in cell growth incubated for 72 hrs by MTT assay; format: functional, cell-based; conditions: HL-60, 72 h
A2780 [23] = experiment: Cytotoxicity against human A2780 cells assessed as reduction in cell growth incubated for 72 hrs by MTT assay; format: functional, cell-based; conditions: A2780, 72 h
SK-LU-1 = experiment: Cytotoxicity against human SK-LU-1 cells assessed as reduction in cell viability incubated for 48 hrs by MTT assay; format: functional, cell-based; conditions: SK-LU-1, 48 h
HepG2 [24] = experiment: Cytotoxicity against human HepG2 cells assessed as reduction in cell viability incubated for 48 hrs by MTT assay; format: functional, cell-based; conditions: HepG2, 48 h
KB = experiment: Cytotoxicity against human KB cells assessed as reduction in cell viability incubated for 48 hrs by MTT assay; format: functional, cell-based
OVCAR-3 = experiment: Anticancer activity against human OVCAR-3 cells assessed as reduction in cell growth at 40 microg/ml incubated for 72 hrs by MTT assay relative to control; format: functional; parameters: scale not given: the % may be the effect or the level left; conditions: dose 40 µg/ml
SK-OV-3 [25] = experiment: Anticancer activity against human SK-OV-3 cells assessed as reduction in cell growth at 40 microg/ml incubated for 72 hrs by MTT assay relative to control; format: functional; parameters: scale not given: the % may be the effect or the level left; conditions: dose 40 µg/ml

CC(=O)OC[C@@]1(C)[C@@H]2CC[C@]3(C)[C@H](CC=C4[C@@H]5[C@@H](C)[C@H](C)CC[C@]5(C(=O)NO)CC[C@]43C)[C@@]2(C)C[C@@H](OC(C)=O)[C@@H]1OC(C)=O
IC50 (HT-29 [1]): 4.12 µM

CCOP(=O)(OCC)C(NC(=O)[C@]12CC[C@@H](C)[C@H](C)[C@H]1C1=CC[C@@H]3[C@@]4(C)C[C@@H](OC(C)=O)[C@H](OC(C)=O)[C@@](C)(COC(C)=O)[C@@H]4CC[C@@]3(C)[C@]1(C)CC2)c1ccccc1Cl (stereo not given in full)
IC50 (HCT-116 [2]): 26.1 µM | IC50 (SK-OV-3 [3]): 27.5 µM | IC50 [4]: 15 µM

COC(=O)C1CCCN1C(=O)[C@]12CC[C@@H](C)[C@H](C)[C@H]1C1=CC[C@@H]3[C@@]4(C)C[C@@H](OC(C)=O)[C@H](OC(C)=O)[C@@](C)(COC(C)=O)[C@@H]4CC[C@@]3(C)[C@]1(C)CC2 (stereo not given in full)
IC50 (B16-F10): 4.2 µM

COC(=O)[C@]12CC[C@@H](C)[C@H](C)[C@H]1C1=CC(=O)[C@@H]3[C@@]4(C)C(C=O)=C[C@@](C)(COS(C)(=O)=O)[C@@H]4CC[C@@]3(C)[C@]1(C)CC2
IC50 (PC-3): 0.42 µM | IC50 (Jurkat): 0.11 µM | IC50 (A-375 [5]): 0.25 µM | IC50 (MIA PaCa-2): 0.46 µM

C[C@H]1[C@H](C)CC[C@]2(C(=O)O)CC[C@]3(C)C(=CC[C@@H]4[C@@]5(C)CC[C@H](O)[C@@](C)(CO)[C@@H]5CC[C@]43C)[C@H]12
Activity (Hepatocyte [6]): 58.3%

C[C@H]1[C@H](C)CC[C@]2(C(=O)O)CC[C@]3(C)C(=CC[C@@H]4[C@@]5(C)C[C@@H](OC(=O)CCC(=O)O)[C@@H]6OC(C)(C)OC[C@@]6(C)[C@@H]5CC[C@]43C)[C@H]12
IC50 (A549): 26 µM | IC50 [7]: 25.6 µM

COc1cccc(NC(=O)[C@]23CC[C@@H](C)[C@H](C)[C@H]2C2=CC[C@@H]4[C@@]5(C)CC6=NCCN=C6[C@@](C)(C=O)[C@@H]5CC[C@@]4(C)[C@]2(C)CC3)c1
IC50 (HepG2 [8]): 4.18 µM | IC50 (SGC-7901 [9]): 3.96 µM

C[C@H]1[C@H](C)CC[C@]2(C(=O)Nc3ccccc3)CC[C@]3(C)C(=CC[C@@H]4[C@@]5(C)C[C@@H](OS(N)(=O)=O)[C@H](OS(N)(=O)=O)[C@@](C)(COS(N)(=O)=O)[C@@H]5CC[C@]43C)[C@H]12
Ki (Carbonic anhydrase 1): 5.23 µM | Ki [10]: 0.0362 µM | Ki (Carbonic anhydrase 9): 0.0258 µM | Ki (Carbonic anhydrase 2): 0.298 µM

COC(=O)[C@]12CC[C@@H](C)[C@H](C)[C@H]1C1=CC[C@@H]3[C@@]4(C)C[C@@H](OC(C)=O)C(=O)[C@@](C)(CC(=O)O)[C@@H]4CC[C@@]3(C)[C@]1(C)CC2
Activity (Hepatocyte [11]): 66.4%

C[C@H]1[C@H](C)CC[C@]2(C(=O)OCc3ccccc3)CC[C@]3(C)C(=CC[C@@H]4[C@@]5(C)C[C@@H](O)[C@H](O)[C@@](C)(CO)[C@@H]5CC[C@]43C)[C@H]12
IC50 (K562): 4.1 µM

CC(=O)OC[C@@]1(C)[C@@H]2CC[C@]3(C)[C@H](C(=O)C=C4[C@@H]5[C@@H](C)[C@H](C)CC[C@]5(C(=O)OCCO)CC[C@]43C)[C@@]2(C)C[C@@H](OC(C)=O)[C@@H]1OC(C)=O
IC50 (HeLa): 4.78 µM | IC50 (HepG2 [12]): 6.84 µM | IC50 (BGC-823): 8.75 µM

CC(N)C(=O)N1CCN(C(=O)[C@]23CC[C@@H](C)[C@H](C)[C@H]2C2=CC[C@@H]4[C@@]5(C)C[C@@H](O)[C@H](O)[C@@](C)(CO)[C@@H]5CC[C@@]4(C)[C@]2(C)CC3)CC1 (stereo not given in full)
IC50 [13]: 1190 µM

CC(=O)OC[C@@]1(C)[C@@H]2CC[C@]3(C)[C@H](C(=O)C=C4[C@@H]5[C@@H](C)[C@H](C)CC[C@]5(C(=O)Nc5ccccc5CO)CC[C@]43C)[C@@]2(C)C[C@@H](OC(C)=O)[C@@H]1OC(C)=O
IC50 (HepG2 [14]): 2.2 µM | IC50 (SGC-7901 [15]): 3.2 µM

CC(=O)O[C@@H]1C[C@@]2(C)[C@@H](CC[C@]3(C)[C@@H]2CC=C2[C@@H]4[C@@H](C)[C@H](C)CC[C@]4(C(=O)N4CCCN(C(=O)c5ccccc5-c5c6ccc(=[N+](CCO)CCO)cc-6oc6cc(N(CCO)CCO)ccc56)CCC4)CC[C@]23C)[C@](C)(OC(C)=O)[C@H]1OC(C)=O
IC50 (A-375 [16]): 0.0074 µM | IC50 (HT-29 [17]): 0.012 µM | IC50 (A2780 [18]): 0.0019 µM | IC50 (MCF7 [19]): 0.017 µM

COC(=O)[C@@]1(C)[C@@H]2CC[C@]3(C)[C@H](CC=C4[C@@H]5[C@@H](C)[C@H](C)CC[C@]5(C(=O)Nc5ccccc5)CC[C@]43C)[C@@]2(C)C[C@@H](OC)[C@@H]1OC(C)=O
IC50 (HCT-116 [20]): 1.08 µM | IC50 (MCF7 [21]): 3.99 µM | IC50 (HepG2 [22]): 1.43 µM | IC50 (HL-60): 0.48 µM | IC50 (A2780 [23]): 1.28 µM

CCOC(=O)CNC(=O)[C@]12CC[C@@H](C)[C@H](C)[C@H]1C1=CC[C@@H]3[C@@]4(C)C[C@@H](OC(C)=O)[C@H](OC(C)=O)[C@@](C)(COC(C)=O)[C@@H]4CC[C@@]3(C)[C@]1(C)CC2
IC50 (SK-LU-1): 1.39 µM | IC50 (HepG2 [24]): 1.99 µM | IC50 (KB): 1.39 µM

C[C@H]1[C@H](C)CC[C@]2(C(=O)O)CC[C@]3(C)C(=CC[C@@H]4[C@@]5(C)C[C@@H](O)[C@H](O)[C@@](C)(CO)[C@@H]5CC[C@]43C)[C@H]12 [ASIATIC ACID]
Activity (OVCAR-3): 50% | Activity (SK-OV-3 [25]): 50%
